# According to patent publication US9512139B2, “Conformationally constrained, fully synthetic macrocyclic compounds” (POLYPHOR AG, priority 2009, dated 2016):
# Tests used:
# [1] = in vitro; type: in vitro ADME, human; settings: human, plasma; for Plasma Stability 240 min hum [% remain.]: 4 h
# Description: Example compounds were dissolved in DMSO/H2O 90:10 to a final concentration of 10 mM for plasma stability determination and metabolic stability determination.
# Human plasma (3-5 donors, Blutspendedienst SRK, Basel) and CD-1 mouse plasma (mixed gender pool >50 animals, Innovative Research, CA, USA) are both sodium citrate stabilized. The assay is performed in triplicates at 10 μM compound concentration and 37° C. Samples are taken at 0, 15, 60, and 240 minutes and stopped by precipitation with 2 volumes of acetonitrile. The supernatant is collected, evaporated and reconstituted in a 5% acetonitrile solution to be analyzed by HPLC/MS/MS. The resulting peak area counts are expressed in percent of the 0 value and used to determine the endpoint stability in % and the half life in minutes. In order to monitor assay integrity the degradation of propantheline is assayed with every experimental set.
# [2] = Metabolic stability assay, human microsomes; type: in vitro ADME; settings: human, microsomes; for Metabolic Stability 60 min hum [% remain.]: 1 h; for half-life at 10 µM: both sexes
# Description: (§1) 4. Plasma and Metabolic Stability Assays
# (§2) The assays were conducted according to literature precedents (F. P. Guengerich, Analysis and Characterization of Enzymes; in: Principles and Methods of Toxicology; A. W. Hayes (Ed.) Raven Press: New York, 1989, 777-813; R. Singh et al., In vitro metabolism of a potent HIV-protease inhibitor (141W94) using rat, monkey and human liver S9, Rapid Commun. Mass Spectrom. 1996, 10, 1019-1026).
# (§3) Metabolic Stability Assay
# (§4) Microsomes from a human 50 donor mixed gender pool and 1:1 mixtures of microsomes from CD-1 mouse single-gender pools are purchased from Celsis (Belgium). The enzymatic reaction is performed in a buffer containing an NADPH regeneration system and microsomes with the following end concentrations: 100 mM potassium phosphate buffer (all from Sigma), 1 mg/mL glucose-6-phosphate, 1 mg/mL β-nicotinamide adenine dinucleotide phosphate (NADP), 0.65 mg/mL magnesium chloride, 0.8 units/mL of glucose-6-phosphate dehydrogenase (prediluted with 5 mM citrate buffer), 10 μM compound and 1 mg/ml microsomal protein. Compounds are incubated at 37° C. in duplicates and samples are taken after 0, 20 and 60 minutes. After acetonitrile precipitation (2 volumes) and HPLC/MS/MS analysis metabolic turnover is expressed in % of the initial 0 minutes value and half life T½ (min) is calculated. Verapamil for human and propranolol for mouse are used as reference and are assayed with every experimental set.
# [3] = in vitro; type: in vitro ADME, mouse; settings: plasma; for Plasma Stability 240 min mouse [% remain.]: 4 h
# [4] = Metabolic stability assay, CD-1 mouse microsomes; type: in vitro ADME; settings: microsomes; for Metabolic Stability 60 min mouse [% remain.]: 1 h
# Description: as §1, §2, §3, §4
# 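Throughout, for Plasma Stability 240 min mouse [% remain.]: sodium citrate stabilized mouse plasma, parent compound quantified by HPLC/MS/MS relative to its peak area at time zero, run in triplicate.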
# 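Throughout, for Plasma Stability T½ [min] mouse: sodium citrate stabilized mouse plasma, parent compound quantified by HPLC/MS/MS relative to its peak area at time zero, run in triplicate.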
Compound,Plasma Stability T½ [min] hum ([1]; 10 µM),Plasma Stability 240 min hum [% remain.] ([1]; 10 µM),"Metabolic Stability T½ [min] hum ([2]; both, 10 µM)","Metabolic Stability 60 min hum [% remain.] ([2]; both, 10 µM)","Plasma Stability T½ [min] mouse ([3]; both, CD-1, mouse, 10 µM)","Plasma Stability 240 min mouse [% remain.] ([3]; both, CD-1, mouse, 10 µM)","Metabolic Stability T½ [min] mouse ([4]; both, CD-1, mouse, 10 µM)","Metabolic Stability 60 min mouse [% remain.] ([4]; both, CD-1, mouse, 10 µM)",half-life at 10 µM [2],Plasma Stability T½ [min] hum [1],Plasma Stability 240 min hum [% remain.] [1],Metabolic Stability T½ [min] hum [2],Metabolic Stability 60 min hum [% remain.] [2],Plasma Stability T½ [min] mouse ([3]; mouse),Plasma Stability 240 min mouse [% remain.] ([3]; mouse),Metabolic Stability T½ [min] mouse ([4]; mouse),Metabolic Stability 60 min mouse [% remain.] ([4]; mouse)
"CN1CC(=O)N2C[C@H](NC(=O)CCC(=O)O)C[C@H]2COc2ccc(cc2)C(=O)N(C)[C@H](C(=O)NCc2ccncc2)CCC1=O [Ex. 267, 4-{[(4S,6R,15S)-11,16-dimethyl-9,12,17-trioxo-15-{[(4-pyridinylmethyl)amino]carbonyl}-2-oxa-8,11,16-triazatricyclo[16.2.2.0^4,8]docosa-1(20),18,21-trien-6-yl]amino}-4-oxobutanoic acid]",> 240 min,75 % remain.,> 60 min,99 % remain.,> 240 min,79 % remain.,> 60 min,100 % remain.,–,–,–,–,–,–,–,–,–
"CC(C)CN1C[C@H]2C[C@H]1COc1ccc(F)cc1C(=O)N(C)CCC[C@H](NC(=O)Cc1ccccc1)C(=O)N2 [Ex. 407, N-[(1S,15S,18R)-7-fluoro-20-isobutyl-11-methyl-10,16-dioxo-3-oxa-11,17,20-triazatricyclo[16.2.1.0^4,9]henicosa-4,6,8-trien-15-yl]-2-phenylacetamide]",> 240 min,80 % remain.,–,47 % remain.,> 240 min,98 % remain.,> 60 min,84 % remain.,0.85 h,–,–,–,–,–,–,–,–
"CN1CC(=O)N2C[C@H](NC(=O)CCc3ccncc3)C[C@H]2COc2ccc(cc2)C(=O)N(C)[C@H](C(=O)NCc2ccc3ccccc3c2)CCC1=O [Ex. 260, (4S,6R,15S)-11,16-dimethyl-N-(2-naphthylmethyl)-9,12,17-trioxo-6-{[3-(4-pyridinyl)propanoyl]amino}-2-oxa-8,11,16-triazatricyclo[16.2.2.0^4,8]docosa-1(20),18,21-triene-15-carboxamide]",> 240 min,100 % remain.,–,19 % remain.,> 240 min,100 % remain.,> 60 min,69 % remain.,0.617 h,–,–,–,–,–,–,–,–

# Now from value to molecule:
Plasma Stability T½ [min] hum ([1]; 10 µM),Plasma Stability 240 min hum [% remain.] ([1]; 10 µM),"Metabolic Stability T½ [min] hum ([2]; both, 10 µM)","Metabolic Stability 60 min hum [% remain.] ([2]; both, 10 µM)","Plasma Stability T½ [min] mouse ([3]; both, CD-1, mouse, 10 µM)","Plasma Stability 240 min mouse [% remain.] ([3]; both, CD-1, mouse, 10 µM)","Metabolic Stability T½ [min] mouse ([4]; both, CD-1, mouse, 10 µM)","Metabolic Stability 60 min mouse [% remain.] ([4]; both, CD-1, mouse, 10 µM)",half-life at 10 µM [2],Plasma Stability T½ [min] hum [1],Plasma Stability 240 min hum [% remain.] [1],Metabolic Stability T½ [min] hum [2],Metabolic Stability 60 min hum [% remain.] [2],Plasma Stability T½ [min] mouse ([3]; mouse),Plasma Stability 240 min mouse [% remain.] ([3]; mouse),Metabolic Stability T½ [min] mouse ([4]; mouse),Metabolic Stability 60 min mouse [% remain.] ([4]; mouse),Compound
> 240 min,92 % remain.,> 60 min,100 % remain.,> 240 min,74 % remain.,> 60 min,98 % remain.,–,–,–,–,–,–,–,–,–,"CN1CC(=O)N2C[C@H](NC(=O)CN3CCCC3)C[C@H]2COc2ccc(cc2)C(=O)N(C)[C@H](C(=O)NCc2ccncc2)CCC1=O [Ex. 266, (4S,6R,15S)-11,16-dimethyl-9,12,17-trioxo-N-(4-pyridinylmethyl)-6-{[2-(1-pyrrolidinyl)acetyl]amino}-2-oxa-8,11,16-triazatricyclo[16.2.2.0^4,8]docosa-1(20),18,21-triene-15-carboxamide]"
–,–,–,–,–,–,–,–,–,> 240 min,77 % remain.,> 60 min,100 % remain.,> 240 min,100 % remain.,> 60 min,100 % remain.,"CC(=O)N[C@H]1C[C@H]2COc3ccc(F)cc3C(=O)N(C)[C@H](C(=O)N3CCCC3)CCC(=O)N(C)CC(=O)N2C1 [Ex. 37, N-[(2S,11S,19aS)-15-fluoro-7,12-dimethyl-5,8,13-trioxo-11-(1-pyrrolidinylcarbonyl)-2,3,6,7,8,9,10,11,12,13,19,19a-dodecahydro-1H,5H-pyrrolo[2,1-c] [1,4,7,12]benzoxatriazacyclo-pentadecin-2-yl]acetamide]"
